Laboratory results as given in US8106055B2, “Substituted amide compounds” (Gruenenthal GmbH, priority 2007, dated 2012).

Columns and labels:
[1] = molecular target: T1, human bradykinin 1 receptor (B1R) (Homo sapiens, UniProt P46663); assay: Functional investigation on the human bradykinin 1 receptor (B1R), Ca2+ FLIPR assay in CHO K1 hB1R cells; type: cell-based; conditions: CHO-K1, B1R antagonism human; test substance 10 μM; Ca2+ FLIPR, CHO K1 hB1R cells; read-out: B1R Ant. h [10 μM] % Inhibition
T1 construct: expressed in transfected cells; host or cells: CHO K1 cells
T1 sequence (P46663 1-353): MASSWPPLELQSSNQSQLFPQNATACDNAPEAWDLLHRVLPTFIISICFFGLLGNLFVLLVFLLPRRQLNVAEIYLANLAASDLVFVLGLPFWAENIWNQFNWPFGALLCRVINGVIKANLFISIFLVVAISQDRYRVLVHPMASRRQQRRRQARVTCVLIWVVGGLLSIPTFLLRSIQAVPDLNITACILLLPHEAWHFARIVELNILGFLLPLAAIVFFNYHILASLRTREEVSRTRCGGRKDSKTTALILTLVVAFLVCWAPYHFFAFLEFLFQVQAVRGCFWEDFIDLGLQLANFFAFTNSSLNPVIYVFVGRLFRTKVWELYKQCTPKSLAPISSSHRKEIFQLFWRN
Outline: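 Cells were dye-loaded with Fluo-4 plus probenecid, then test substances added and Ca2+ influx compared with agonist control for % activation. After 10-20 min, EC80 agonist (Lys-Des-Arg9-bradykinin human; Des-Arg9-bradykinin rat) was applied; suppression gave % inhibition and IC50 values.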

[2] = molecular target: T2, serotonin (5-HT) reuptake (Rattus norvegicus, UniProt P31652); assay: Inhibition of serotonin (5HT) reuptake in synaptosomes from rat brain; type: biochemical; conditions: test concentration of 10 μM; read-out: 5-HT (inhibition of reuptake of serotonin, % inhibition)
T2 construct: synaptosomes are freshly isolated from areas of the rat brain; from tissue; host or cells: rat brain synaptosomes (P2 fraction)
T2 sequence (P31652 whole entry): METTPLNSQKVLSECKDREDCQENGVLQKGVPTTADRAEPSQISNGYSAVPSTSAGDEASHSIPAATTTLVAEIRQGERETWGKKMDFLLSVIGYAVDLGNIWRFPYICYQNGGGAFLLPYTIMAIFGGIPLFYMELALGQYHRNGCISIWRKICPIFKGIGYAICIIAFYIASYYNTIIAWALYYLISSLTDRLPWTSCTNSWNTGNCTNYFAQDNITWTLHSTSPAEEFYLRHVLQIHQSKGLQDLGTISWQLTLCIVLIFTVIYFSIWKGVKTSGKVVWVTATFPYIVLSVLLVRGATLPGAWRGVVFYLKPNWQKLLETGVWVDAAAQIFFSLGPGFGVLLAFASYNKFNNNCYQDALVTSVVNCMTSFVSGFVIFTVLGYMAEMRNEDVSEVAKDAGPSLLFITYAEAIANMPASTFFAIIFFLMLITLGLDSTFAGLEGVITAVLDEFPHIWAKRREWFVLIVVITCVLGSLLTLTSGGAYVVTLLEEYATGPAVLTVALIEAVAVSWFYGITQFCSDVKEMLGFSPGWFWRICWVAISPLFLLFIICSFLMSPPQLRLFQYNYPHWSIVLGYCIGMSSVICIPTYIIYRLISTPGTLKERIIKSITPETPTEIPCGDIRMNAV
Outline: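 Freshly isolated rat brain synaptosomes (P2 fraction) used for 5-HT reuptake. Test compound at 10 μM, activity given as % inhibition.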

Work on `CN(C)C(c1ccccc1)C1CCC(NC(=O)COCCN(C)S(=O)(=O)c2c(Cl)cc(Cl)cc2Cl)CC1` (stereo not shown) [Example 34, N-(4-((dimethylamino)(phenyl)methyl)cyclohexyl)-2-(2-(2,4,6-trichloro-N-methylphenylsulfonamido)ethoxy)acetamide] yielded an inhibition at 10 µM [1] of 102% and an inhibition at 10 µM [2] of 79%.

Work on `COc1ccc(S(=O)(=O)N2Cc3ccccc3CC2COCC(=O)NCCC2CCC(C(c3cccs3)N(C)C)CC2)cc1` (stereo not shown) [Example 48, N-(2-(4-((dimethylamino)(thiophen-2-yl)methyl)cyclohexyl)ethyl)-2-((2-(4-methoxyphenylsulfonyl)-1,2,3,4-tetrahydroisoquinolin-3-yl)methoxy)acetamide] yielded an inhibition at 10 µM [1] of 33% and an inhibition at 10 µM [2] of 101%.

`COc1cc(C)c(S(=O)(=O)N(C)CCOCC(=O)NCCC2CCC(C(c3cccs3)N(C)C)CC2)c(C)c1C` (stereo not shown) [Example 52, N-(2-(4-((dimethylamino)(thiophen-2-yl)methyl)cyclohexyl)ethyl)-2-(2-(4-methoxy-N,2,3,6-tetramethylphenylsulfonamido)ethoxy)acetamide] gave an inhibition at 10 µM [1] of 103% and an inhibition at 10 µM [2] of 91%.

For `CN(C)C(c1cccs1)C1CCC(CNC(=O)COCCN(C)S(=O)(=O)c2ccc(OC(F)(F)F)cc2)CC1` (stereo not shown) [Example 93, N-((4-((dimethylamino)(thiophen-2-yl)methyl)cyclohexyl)methyl)-2-(2-(N-methyl-4-(trifluoromethoxy)phenylsulfonamido)ethoxy)acetamide], the inhibition at 10 µM [1] was -2% and the inhibition at 10 µM [2] was 93%.

For `Cc1cc(C)c(S(=O)(=O)N2CCC(OCC(=O)NCCC3CCC(C(c4cccs4)N(C)C)CC3)C2)c(C)c1` (stereo not shown) [Example 71, N-(2-(4-((dimethylamino)(thiophen-2-yl)methyl)cyclohexyl)ethyl)-2-(1-(mesitylsulfonyl)pyrrolidin-3-yloxy)acetamide], the inhibition at 10 µM [1] was 84% and the inhibition at 10 µM [2] was 79%.

`COc1cc(C)c(S(=O)(=O)N2CCC(CCOCC(=O)NC3CCC(C(c4cccs4)N(C)C)CC3)CC2)c(C)c1C` (stereo not shown) [Example 5, N-(4-((dimethylamino)(thiophen-2-yl)methyl)cyclohexyl)-2-(2-(1-(4-methoxy-2,3,6-trimethylphenylsulfonyl)piperidin-4-yl)ethoxy)acetamide] gave an inhibition at 10 µM [1] of 24% and an inhibition at 10 µM [2] of 87%.

`CN(C)C(c1ccccc1)C1CCC(CNC(=O)COC2CCN(S(=O)(=O)c3ccc(Cl)cc3)C2)CC1` (stereo not shown) [Example 81, 2-(1-(4-chlorophenylsulfonyl)pyrrolidin-3-yloxy)-N-((4-((dimethylamino)(phenyl)methyl)cyclohexyl)methyl)acetamide] showed an inhibition at 10 µM [1] of -10% and an inhibition at 10 µM [2] of 91%.

`CN(C)C(c1cccs1)C1CCC(CCNC(=O)COCCN(C)S(=O)(=O)c2ccc(F)cc2)CC1` (stereo not shown) [Example 85, N-(2-(4-((dimethylamino)(thiophen-2-yl)methyl)cyclohexyl)ethyl)-2-(2-(4-fluoro-N-methylphenylsulfonamido)ethoxy)acetamide] gave an inhibition at 10 µM [1] of 7% and an inhibition at 10 µM [2] of 98%.

Work on `COc1cc(C)c(S(=O)(=O)N2CCC(OCC(=O)NCC3CCC(C(c4cccs4)N(C)C)CC3)C2)c(C)c1C` (stereo not shown) [Example 58, N-((4-((dimethylamino)(thiophen-2-yl)methyl)cyclohexyl)methyl)-2-(1-(4-methoxy-2,3,6-trimethylphenylsulfonyl)pyrrolidin-3-yloxy)acetamide] yielded an inhibition at 10 µM [1] of 52% and an inhibition at 10 µM [2] of 94%.

`CN(C)C(c1cccc(F)c1)C1CCC(CNC(=O)COCCN(C)S(=O)(=O)c2c(Cl)cccc2Cl)CC1` (stereo not shown) [Example 72, 2-(2-(2,6-dichloro-N-methylphenylsulfonamido)ethoxy)-N-((4-((dimethylamino)(3-fluorophenyl)methyl)cyclohexyl)methyl)acetamide] gave an inhibition at 10 µM [1] of 94% and an inhibition at 10 µM [2] of 84%.

In the case of `COc1ccc(S(=O)(=O)N2CCCCC2COCC(=O)NCC2CCC(C(c3cccs3)N(C)C)CC2)c(OC)c1` (stereo not shown) [Example 49, 2-((1-(2,4-dimethoxyphenylsulfonyl)piperidin-2-yl)methoxy)-N-((4-((dimethylamino)(thiophen-2-yl)methyl)cyclohexyl)methyl)acetamide], the inhibition at 10 µM [1] is reported as 2% and the inhibition at 10 µM [2] is reported as 86%.

For `COc1cc(C)c(S(=O)(=O)N(C)CCOCC(=O)NCC2CCC(C(c3cccs3)N(C)C)CC2)c(C)c1C` (stereo not shown) [Example 35, N-((4-((dimethylamino)(thiophen-2-yl)methyl)cyclohexyl)methyl)-2-(2-(4-methoxy-N,2,3,6-tetramethylphenylsulfonamido)ethoxy)acetamide], the inhibition at 10 µM [1] was 50% and the inhibition at 10 µM [2] was 84%.

Compound `CN(C)C(c1cccs1)C1CCC(CNC(=O)COC2CCN(S(=O)(=O)c3ccccc3)C2)CC1` (stereo not shown) [Example 36, N-((4-((dimethylamino)(thiophen-2-yl)methyl)cyclohexyl)methyl)-2-(1-(phenylsulfonyl)pyrrolidin-3-yloxy)acetamide] has an inhibition at 10 µM [1] of -11% and an inhibition at 10 µM [2] of 102%.

In the case of `COc1cc(C)c(S(=O)(=O)N2CCC(OCC(=O)NCC3CCC(C(c4ccccc4)N(C)C)CC3)C2)c(C)c1C` (stereo not shown) [Example 44, N-((4-((dimethylamino)(phenyl)methyl)cyclohexyl)methyl)-2-(1-(4-methoxy-2,3,6-trimethylphenylsulfonyl)pyrrolidin-3-yloxy)acetamide], the inhibition at 10 µM [1] is reported as 46% and the inhibition at 10 µM [2] is reported as 94%.

`CN(C)C(c1cccc(F)c1)C1CCC(CCNC(=O)COCCN(C)S(=O)(=O)c2c(Cl)cccc2Cl)CC1` (stereo not shown) [Example 41, 2-(2-(2,6-dichloro-N-methylphenylsulfonamido)ethoxy)-N-(2-(4-((dimethylamino)(3-fluorophenyl)methyl)cyclohexyl)ethyl)acetamide] gave an inhibition at 10 µM [1] of 91% and an inhibition at 10 µM [2] of 79%.

`CN(C)C(c1ccccc1)C1CCC(CNC(=O)COCCN(C)S(=O)(=O)c2cccc(C(F)(F)F)c2)CC1` (stereo not shown) [Example 91, N-((4-((dimethylamino)(phenyl)methyl)cyclohexyl)methyl)-2-(2-(N-methyl-3-(trifluoromethyl)phenylsulfonamido)ethoxy)acetamide] gave an inhibition at 10 µM [1] of 42% and an inhibition at 10 µM [2] of 93%.

`CN(C)C(c1cccc(F)c1)C1CCC(CNC(=O)COCCN(C)S(=O)(=O)c2ccc(Cl)cc2Cl)CC1` (stereo not shown) [Example 70, 2-(2-(2,4-dichloro-N-methylphenylsulfonamido)ethoxy)-N-((4-((dimethylamino)(3-fluorophenyl)methyl)cyclohexyl)methyl)acetamide] was tested, and the inhibition at 10 µM [1] was 98% and the inhibition at 10 µM [2] was 86%.

For `COc1ccc(S(=O)(=O)N2CCCCC2CCOCC(=O)NCC2CCC(C(c3ccccc3)N(C)C)CC2)cc1` (stereo not shown) [Example 89, N-((4-((dimethylamino)(phenyl)methyl)cyclohexyl)methyl)-2-(2-(1-(4-methoxyphenylsulfonyl)piperidin-2-yl)ethoxy)acetamide], the inhibition at 10 µM [1] was 42% and the inhibition at 10 µM [2] was 92%.

`COc1cc(C)c(S(=O)(=O)N2CCCC(OCC(=O)NCC3CCC(C(c4cccs4)N(C)C)CC3)C2)c(C)c1C` (stereo not shown) [Example 60, N-((4-((dimethylamino)(thiophen-2-yl)methyl)cyclohexyl)methyl)-2-(1-(4-methoxy-2,3,6-trimethylphenylsulfonyl)piperidin-3-yloxy)acetamide] was tested, and the inhibition at 10 µM [1] was 28% and the inhibition at 10 µM [2] was 92%.

`COc1ccc(S(=O)(=O)N2CCC(OCC(=O)NCCC3CCC(C(c4cccs4)N(C)C)CC3)C2)cc1OC` (stereo not shown) [Example 94, 2-(1-(3,4-dimethoxyphenylsulfonyl)pyrrolidin-3-yloxy)-N-(2-(4-((dimethylamino)(thiophen-2-yl)methyl)cyclohexyl)ethyl)acetamide] gave an inhibition at 10 µM [1] of -5% and an inhibition at 10 µM [2] of 88%.

For `CN(C)C(c1cccs1)C1CCC(CCNC(=O)COCCN(C)S(=O)(=O)c2ccc(Cl)cc2)CC1` (stereo not shown) [Example 37, 2-(2-(4-chloro-N-methylphenylsulfonamido)ethoxy)-N-(2-(4-((dimethylamino)(thiophen-2-yl)methyl)cyclohexyl)ethyl)acetamide], the inhibition at 10 µM [1] was 40% and the inhibition at 10 µM [2] was 90%.

In the case of `CN(C)C(c1cccs1)C1CCC(CCNC(=O)COC2CCN(S(=O)(=O)c3ccc(Cl)cc3)C2)CC1` (stereo not shown) [Example 66, 2-(1-(4-chlorophenylsulfonyl)pyrrolidin-3-yloxy)-N-(2-(4-((dimethylamino)(thiophen-2-yl)methyl)cyclohexyl)ethyl)acetamide], the inhibition at 10 µM [1] is reported as -1% and the inhibition at 10 µM [2] is reported as 85%.

Compound `COc1cc(C)c(S(=O)(=O)N(C)CCOCC(=O)NCCC2CCC(C(c3cccs3)N(C)C)CC2)c(C)c1` (stereo not shown) [Example 84, N-(2-(4-((dimethylamino)(thiophen-2-yl)methyl)cyclohexyl)ethyl)-2-(2-(4-methoxy-N,2,6-trimethylphenylsulfonamido)ethoxy)acetamide] has an inhibition at 10 µM [1] of 104% and an inhibition at 10 µM [2] of 92%.
